Assay results from patent publication US8822462B2, “Subunit selective NMDA receptor potentiators for the treatment of neurological conditions” (Emory University, priority 2009, dated 2014).

Columns and labels:
NR1/NR2C [1] = molecular target: T1, NR1/NR2C (Homo sapiens, UniProt Q14957); assay: Two electrode voltage clamp, Xenopus laevis oocytes expressing NR1/NR2C; assay type: cell-based
T1 construct: expressed in transfected cells; host or cells: Xenopus laevis oocytes
Text: (§1) Values are mean+SEM (n=14-20). […] C is the closed level; broken line is the open level.
(§2) The Hill slope at both receptors for all analogues was greater than 1, consistent with a cooperative effect of binding at two sites.
(§3) In the table above, potency is expressed as fitted EC50 value to average composite concentration-effect data constructed from current responses recorded under two electrode voltage clamp from Xenopus laevis oocytes expressing either NR1/NR2A, B, C, or D, GluR1, or GluR6. No effect means less than 20% change in response amplitude at 30 μM of drug.

NR1/NR2D [2] = molecular target: T2, NR1/NR2D (Homo sapiens, UniProt O15399); assay: Two electrode voltage clamp, Xenopus laevis oocytes expressing NR1/NR2D
Target sequence in this assay (O15399 28-1336, species assumed, other chains not shown): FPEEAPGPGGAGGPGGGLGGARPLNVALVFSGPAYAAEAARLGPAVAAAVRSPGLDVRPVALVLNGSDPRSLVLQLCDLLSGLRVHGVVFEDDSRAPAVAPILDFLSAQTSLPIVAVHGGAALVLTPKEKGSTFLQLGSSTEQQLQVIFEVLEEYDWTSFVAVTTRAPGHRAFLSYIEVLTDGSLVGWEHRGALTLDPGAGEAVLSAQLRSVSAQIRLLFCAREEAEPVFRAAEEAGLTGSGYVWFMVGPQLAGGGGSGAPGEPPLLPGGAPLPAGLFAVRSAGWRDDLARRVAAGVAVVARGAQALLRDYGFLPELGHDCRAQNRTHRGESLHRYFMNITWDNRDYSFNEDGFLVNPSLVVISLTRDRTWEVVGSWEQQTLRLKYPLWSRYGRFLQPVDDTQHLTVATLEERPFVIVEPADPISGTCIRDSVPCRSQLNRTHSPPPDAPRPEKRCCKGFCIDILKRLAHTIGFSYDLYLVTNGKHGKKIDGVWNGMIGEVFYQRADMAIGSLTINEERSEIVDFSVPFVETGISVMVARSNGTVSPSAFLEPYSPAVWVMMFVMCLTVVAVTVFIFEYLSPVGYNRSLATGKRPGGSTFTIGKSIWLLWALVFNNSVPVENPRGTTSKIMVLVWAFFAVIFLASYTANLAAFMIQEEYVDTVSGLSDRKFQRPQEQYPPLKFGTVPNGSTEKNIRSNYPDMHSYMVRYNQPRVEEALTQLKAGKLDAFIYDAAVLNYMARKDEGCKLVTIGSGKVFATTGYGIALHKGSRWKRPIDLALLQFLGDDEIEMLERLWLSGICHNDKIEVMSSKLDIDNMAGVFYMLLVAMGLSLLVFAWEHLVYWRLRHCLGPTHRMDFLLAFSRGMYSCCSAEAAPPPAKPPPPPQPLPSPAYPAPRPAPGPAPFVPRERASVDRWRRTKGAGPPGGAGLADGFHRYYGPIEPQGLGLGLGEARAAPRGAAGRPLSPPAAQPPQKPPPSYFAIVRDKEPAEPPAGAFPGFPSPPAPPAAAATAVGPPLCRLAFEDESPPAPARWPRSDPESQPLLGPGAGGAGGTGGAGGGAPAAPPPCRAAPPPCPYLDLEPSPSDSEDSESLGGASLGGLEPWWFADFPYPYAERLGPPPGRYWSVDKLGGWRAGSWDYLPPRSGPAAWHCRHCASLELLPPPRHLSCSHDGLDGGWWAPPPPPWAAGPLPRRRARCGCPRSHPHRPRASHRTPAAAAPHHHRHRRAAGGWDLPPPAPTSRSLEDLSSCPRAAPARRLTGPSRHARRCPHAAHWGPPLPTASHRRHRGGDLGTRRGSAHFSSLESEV

NR1/NR2C [3] = molecular target: T3, NR1/NR2C (Homo sapiens, UniProt Q05586+Q14957); assay: Two electrode voltage clamp, Xenopus laevis oocytes expressing NR1/NR2C; assay type: cell-based; conditions: for IC50: fitted to composite concentration-effect data, read-out: 2C IC50; for Emax: maximal effect of fit, read-out: 2C Max; for activity at 100 µM: read-out: 2C percent effect at the maximum tested concentration
T3 construct: expressed in transfected cells; host or cells: Xenopus laevis oocytes
Text: as §1, §2, §3

NR1/NR2A = molecular target: T4, NR1/NR2A (Homo sapiens, UniProt Q12879); assay: Two electrode voltage clamp, Xenopus laevis oocytes expressing NR1/NR2A; assay type: cell-based; conditions: at 100 μM; read-out: 2A percent effect at the maximum tested concentration
T4 construct: expressed in transfected cells; host or cells: Xenopus laevis oocytes
Protocol: as §3

[4] = test system: recombinant NMDA receptors; assay: Voltage and pH dependence of potentiation of recombinant NMDA receptors; assay type: cell-based
Text: FIG. 2A illustrates the subunit-selectivity with which the compounds of Formula A, including a specific compound herein referred to as DIQ-1180, acts on recombinant NMDA receptors. The structure of DIQ-1180 is shown below.
as §2

NR1/NR2D [5] = molecular target: NR1/NR2D (Homo sapiens, UniProt O15399+Q05586); assay: Two electrode voltage clamp, Xenopus laevis oocytes expressing NR1/NR2D; conditions: for Emax: read-out: 2D Max; for activity at 100 µM: read-out: 2D percent effect at the maximum tested concentration, at 100 μM
NR1/NR2B = molecular target: T5, NR1/NR2B (Homo sapiens, UniProt Q05586+Q13224); assay: Two electrode voltage clamp, Xenopus laevis oocytes expressing NR1/NR2B; assay type: cell-based; conditions: for activity at 100 µM: read-out: 2B percent effect at the maximum tested concentration
T5 construct: expressed in transfected cells; host or cells: Xenopus laevis oocytes
Protocol: as §3

NR1/NR2D [6] = molecular target: T2, NR1/NR2D; assay: Single channel currents in excised outside-out patches; assay type: cell-based; set-up: expressed in transfected cells
Text: as §1
Target sequence in this assay (O15399 28-1336, other chains not shown): as the sequence (O15399 28-1336, species assumed, other chains not shown) above
Our initial studies varying the compound structure confirm that there are strict requirements for the position and type of substituent on the isoquinoline backbone (see Table 3).

[7] = test system: native NMDA receptor responses in subthalamic neurons; assay: Patch clamp recording from slices of subthalamic nuclei, pressure-applied NMDA/glycine; assay type: cell-based

Chain of NR1/NR2D (Homo sapiens, UniProt O15399+Q05586) (O15399 28-1336, species assumed, other chains not shown): as above
T4 sequence (Q12879 23-1464, species assumed, other chains not shown): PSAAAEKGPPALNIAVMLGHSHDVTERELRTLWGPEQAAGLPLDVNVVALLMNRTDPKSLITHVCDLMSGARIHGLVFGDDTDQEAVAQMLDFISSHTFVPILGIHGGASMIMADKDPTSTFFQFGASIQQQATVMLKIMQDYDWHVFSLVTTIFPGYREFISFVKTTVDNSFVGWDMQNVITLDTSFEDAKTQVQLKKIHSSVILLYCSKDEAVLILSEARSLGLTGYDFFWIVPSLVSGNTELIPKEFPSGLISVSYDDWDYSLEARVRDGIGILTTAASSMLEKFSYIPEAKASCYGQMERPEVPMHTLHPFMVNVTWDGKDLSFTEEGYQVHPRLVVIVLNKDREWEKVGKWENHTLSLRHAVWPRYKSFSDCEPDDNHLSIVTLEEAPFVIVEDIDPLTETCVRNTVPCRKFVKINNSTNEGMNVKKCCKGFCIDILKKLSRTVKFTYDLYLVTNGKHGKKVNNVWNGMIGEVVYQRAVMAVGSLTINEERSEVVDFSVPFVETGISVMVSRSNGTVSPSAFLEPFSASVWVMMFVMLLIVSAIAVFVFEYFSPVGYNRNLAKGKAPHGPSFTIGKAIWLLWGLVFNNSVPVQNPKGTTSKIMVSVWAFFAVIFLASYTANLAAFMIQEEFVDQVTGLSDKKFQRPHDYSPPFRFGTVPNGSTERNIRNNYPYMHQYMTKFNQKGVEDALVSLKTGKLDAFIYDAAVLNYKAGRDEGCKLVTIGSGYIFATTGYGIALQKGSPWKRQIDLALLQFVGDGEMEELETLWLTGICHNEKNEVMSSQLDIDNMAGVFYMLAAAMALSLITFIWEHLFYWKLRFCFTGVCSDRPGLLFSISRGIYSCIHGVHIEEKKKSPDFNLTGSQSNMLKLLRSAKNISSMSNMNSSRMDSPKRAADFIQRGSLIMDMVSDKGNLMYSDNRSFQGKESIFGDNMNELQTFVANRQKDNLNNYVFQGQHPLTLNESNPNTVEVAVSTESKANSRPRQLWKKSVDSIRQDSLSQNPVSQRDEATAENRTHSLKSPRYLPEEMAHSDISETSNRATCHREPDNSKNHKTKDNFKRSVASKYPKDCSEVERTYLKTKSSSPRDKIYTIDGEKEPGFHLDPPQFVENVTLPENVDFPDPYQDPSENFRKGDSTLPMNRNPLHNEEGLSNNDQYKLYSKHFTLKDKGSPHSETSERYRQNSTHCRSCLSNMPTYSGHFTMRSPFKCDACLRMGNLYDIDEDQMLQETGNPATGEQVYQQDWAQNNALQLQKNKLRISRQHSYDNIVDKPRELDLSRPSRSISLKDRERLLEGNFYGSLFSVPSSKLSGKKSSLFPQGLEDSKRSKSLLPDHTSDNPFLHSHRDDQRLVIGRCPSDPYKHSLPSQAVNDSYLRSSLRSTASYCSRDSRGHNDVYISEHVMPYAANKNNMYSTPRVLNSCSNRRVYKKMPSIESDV
T3 sequence (Q14957 20-1233, species assumed, other chains not shown): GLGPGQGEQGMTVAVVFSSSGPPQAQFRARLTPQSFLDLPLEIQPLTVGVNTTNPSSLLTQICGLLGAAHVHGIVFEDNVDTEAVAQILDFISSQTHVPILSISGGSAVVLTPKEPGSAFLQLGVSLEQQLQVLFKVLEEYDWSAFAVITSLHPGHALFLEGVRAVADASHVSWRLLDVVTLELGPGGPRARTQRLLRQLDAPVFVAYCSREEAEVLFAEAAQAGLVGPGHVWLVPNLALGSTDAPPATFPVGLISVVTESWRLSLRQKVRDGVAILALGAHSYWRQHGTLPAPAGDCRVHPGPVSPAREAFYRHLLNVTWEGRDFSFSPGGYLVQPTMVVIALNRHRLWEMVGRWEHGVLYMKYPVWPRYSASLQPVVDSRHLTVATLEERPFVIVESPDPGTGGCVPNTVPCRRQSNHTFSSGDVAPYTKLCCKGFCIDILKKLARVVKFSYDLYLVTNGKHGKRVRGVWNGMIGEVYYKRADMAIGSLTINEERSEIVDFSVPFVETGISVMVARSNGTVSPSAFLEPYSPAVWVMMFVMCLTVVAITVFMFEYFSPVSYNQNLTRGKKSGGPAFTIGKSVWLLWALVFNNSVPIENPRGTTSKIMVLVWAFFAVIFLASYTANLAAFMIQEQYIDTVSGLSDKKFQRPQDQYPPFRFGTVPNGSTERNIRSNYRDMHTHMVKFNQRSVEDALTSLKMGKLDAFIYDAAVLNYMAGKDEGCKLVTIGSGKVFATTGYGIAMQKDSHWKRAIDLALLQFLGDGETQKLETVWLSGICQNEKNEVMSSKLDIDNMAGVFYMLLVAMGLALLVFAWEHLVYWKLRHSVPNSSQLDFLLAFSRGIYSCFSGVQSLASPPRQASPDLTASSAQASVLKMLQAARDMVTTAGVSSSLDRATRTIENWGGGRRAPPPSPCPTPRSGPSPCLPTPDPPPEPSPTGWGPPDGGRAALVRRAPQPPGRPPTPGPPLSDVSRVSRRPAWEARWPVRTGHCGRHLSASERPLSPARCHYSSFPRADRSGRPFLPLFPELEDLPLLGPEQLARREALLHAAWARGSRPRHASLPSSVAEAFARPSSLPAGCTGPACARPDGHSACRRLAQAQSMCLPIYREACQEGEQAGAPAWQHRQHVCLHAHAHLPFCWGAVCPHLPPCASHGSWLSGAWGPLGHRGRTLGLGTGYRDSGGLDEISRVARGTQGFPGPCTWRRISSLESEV
T1 sequence (Q14957 20-1233, species assumed, other chains not shown): as above

SMILES | activity at 100 µM (NR1/NR2A) [%] | activity at 100 µM (NR1/NR2B) [%] | activity at 100 µM (NR1/NR2C [3]) [%] | activity at 100 µM (NR1/NR2D [5]) [%] | IC50 (NR1/NR2C [3]) [µM] | Emax (NR1/NR2C [3]) [%] | IC50 (NR1/NR2D [5]) [µM] | Emax (NR1/NR2D [5]) [%] | other results
CSC1=NCCN1C(=O)c1ccc2ccccc2c1 [compound 1397] |  |  |  |  |  |  |  |  | 2C percent effect at the maximum tested concentration (NR1/NR2C [1]; at 100 μM): 98% at 100 μM; 2D percent effect at the maximum tested concentration (NR1/NR2D [2]; at 100 μM): 87% at 100 μM
COc1ccc(OCC2c3cc(OC)c(OC)cc3CCN2C(=O)c2ccccc2)cc1 (stereo not shown) [compound 1180] | 81 | 67 |  |  | 12 | 145 | 11 | 156 | maximal potentiation at NR2C-containing receptors (NR1/NR2C [1]; Example 1): 181%; EC50 (NR1/NR2C [3]; Example 1, read-out: EC50 value for potentiation of NR2C-containing receptors): 11 µM; voltage dependence of potentiating actions ([4]; n=7): voltage-independent; pH dependence of potentiating actions ([4]; n=10-16): pH-independent; maximal potentiation at NR2D-containing receptors (NR1/NR2D [2]; Example 1): 162%; EC50 (NR1/NR2D [5]): 13 µM; total open probability (nPo) (NR1/NR2D [6]; glutamate/glycine-activated unitary currents, increased from 0.083 without compound): 0.207; opening frequency of recombinant NR1/NR2D single channel currents (NR1/NR2D [6]; maximally effective glutamate/glycine, FIG. 2B): increased the opening frequency; opening frequency (NR1/NR2D [6]; reversed by washout): 178 % of control; current response to pressure-applied NMDA/glycine ([7]; 30 μM, listed as DIQ-1180): potentiated
COc1ccc(OCC2c3cc(OC)c(OC)cc3CCN2C(=O)c2cccs2)cc1 (stereo not shown) [compound 1486] | 78 | 88 |  |  | 9 | 131 | 6 | 112 | 
COc1ccc(OCC2c3cc(OC)c(OC)cc3CCN2C(=O)c2cccc(C(F)(F)F)c2)cc1 (stereo not shown) [compound 1426] | 88 | 86 |  |  | 2 | 171 | 2 | 204 | 
COc1ccc(OCC2c3c(cc(OC)cc3OC)CCN2C(=O)c2ccccc2)cc1 (stereo not shown) [1180-19] | 63 | 100 |  |  | 10 | 160 | 9 | 150 | 
CC(C)(C)c1ccc(C(=O)Nc2sc3c(c2C(=O)O)CCCC3)cc1 [compound 1417] | 87 | 102 |  |  | 20 | 202 | 16 | 205 | 
COc1ccc(-c2csc(NC(=O)c3ccc(C(C)(C)C)cc3)c2C(=O)O)cc1 [compound 1424] | 123 |  |  |  | 42 | 434 | 43 | 475 | IC50 (NR1/NR2B; fitted to composite concentration-effect data, Max 0 = inhibition, read-out: 2B IC50): 19 µM
Cc1sc(NC(=O)c2ccc(C(C)(C)C)cc2)c(C(=O)O)c1C [compound 1418] | 99 | 115 |  |  | 33 | 187 | 35 | 195 | 
NC(CCCP(=O)(O)O)C(=O)O (racemic) [DL-APV, reference compound] |  |  |  |  |  |  |  |  | current response to pressure-applied NMDA/glycine ([7]; 100 μM): blocked
COc1ccc(OCC2c3cc(OC)c(OC)cc3CCN2C(=O)c2ccc(Cl)cc2)cc1 (stereo not shown) [compound 1368] | 105 | 78 |  |  | 4 | 135 | 5 | 114 | 

More lines, main results first:

activity at 100 µM (NR1/NR2A) [%] | activity at 100 µM (NR1/NR2B) [%] | activity at 100 µM (NR1/NR2C [3]) [%] | activity at 100 µM (NR1/NR2D [5]) [%] | SMILES | IC50 (NR1/NR2C [3]) [µM] | Emax (NR1/NR2C [3]) [%] | IC50 (NR1/NR2D [5]) [µM] | Emax (NR1/NR2D [5]) [%] | other results
77 | 78 | 83 | 95 | COc1ccc(OCC2c3cc(OC)c(OC)cc3CCN2C(=O)c2ccc([N+](=O)[O-])cc2)cc1 (stereo not shown) [compound 1370] |  |  |  |  | 
96 | 97 | 95 | 81 | Cc1cc(C(=O)O)c(NC(=O)c2ccccc2)s1 [compound 1396] |  |  |  |  | 
87 | 97 | 109 | 99 | COc1cc2c(cc1OC)C(COc1ccc(OC(F)(F)F)cc1)N(C(=O)c1cccc(Cl)c1)CC2 (stereo not shown) [1180-9] |  |  |  |  | 
115 | 128 | 93 | 103 | COc1cc2c(cc1OC)C(COc1ccc(SC)cc1)N(C(=O)c1ccccc1)CC2 (stereo not shown) [1180-14] |  |  |  |  | 
88 | 94 | 104 | 86 | Cc1ccc(CSc2nccn2C(=O)c2ccc(C(C)(C)C)cc2)cc1 [compound 1403] |  |  |  |  | 
104 | 80 | 103 | 93 | CSC1=NCCN1C(=O)c1ccc2ccccc2c1 [compound 1402] |  |  |  |  | 
86 | 68 | 99 | 77 | O=C(O)C1=C(NC(=O)c2ccc(Br)cc2)SC2CCCC12 (stereo not shown) [compound 1404] |  |  |  |  | 
107 | 98 | 103 | 103 | CC(C)(C)c1ccc(C(=O)Nc2scc(-c3ccc(Br)cc3)c2C(=O)O)cc1 [compound 1435] |  |  |  |  | 
93 | 91 | 97 | 90 | O=C(O)C1=C(NC(=O)c2ccc(I)cc2)SC2CCCC12 (stereo not shown) [compound 1419] |  |  |  |  | 
